Data set [1] concerns breast carcinoma (MCF-7) cells. Kind of data set: Cell viability (MTT) assay, MCF-7. In kind it is cell-based, human. The protocol: (§1) 8. Typical Procedure for Cell Viability Assay
(§2) The breast carcinoma (MCF-7), lung carcinoma (H1299), and prostate carcinoma (DU145) cells were first plated at a density of 5×10^3 cells per well in 96-well plates for overnight and then treated with different concentrations of these compounds. After 48 h of treatment, 100 µL of MTT solution was added to each well and the cells were incubated for 1 h at 37° C. Then, the MTT solution was completely removed and […] of DMSO was added to solubilize the MTT formazan crystals. Finally, the absorbance was measured using a MQX200R microplate reader (BioTek, VT, USA) at a wavelength of 550 nm.

For data set [2], the system named is lung carcinoma (H1299) cells. Kind of data set: Cell viability (MTT) assay, H1299. In kind it is cell-based, human. The protocol: as §1, §2
Data set [3] relates to prostate carcinoma (DU145) cells. Kind of data set: Cell viability (MTT) assay, DU145. In kind it is cell-based, human. The protocol:
as §1, §2

Where [4] appears, read: Homo sapiens, MCF7, 48 h treatment.
Setting [5] is: Homo sapiens, NCI-H1299, 48 h treatment.
Where [6] appears, read: Homo sapiens, DU-145, 48 h treatment.

Bounds are passed on as bounds.

Take `COc1cc2c3c(c4c(OC)c(OC)c(OC)cc4c2cc1OC)CC1CCCN1C3` (stereo not drawn) [Compound 4a, 1,2,3,6,7-Pentamethoxy-11,12,12a,13-tetrahydro-10H-9a-azacyclopenta[b]triphenylene]: the melting point is 225 to 226 °C. In data set [1] (setting [4]), this molecule displayed an IC50 above 2500 nM. For the same molecule, the IC50 in data set [2] (setting [5]) was above 2500 nM. The molecule also came in with an IC50 in data set [3] (setting [6]) above 2500 nM.
With `COc1ccc2c3c(c4cc(OC)c(OC)cc4c2c1)CN1CCC[C@H]1C3` [Compound 4b, Deoxypergularinine], the IC50 in data set [1] (48 h treatment) was determined as 305 nM; in data set [2] (48 h treatment), 235 nM; in data set [3] (48 h treatment), 176 nM.
Molecule `COc1ccc2c(c1)c1c(c3cc(OC)c(OC)cc32)CN2CCCC2C1` (stereo not drawn) [Compound 4c, 2,6,7-Trimethoxy-11,12,12a,13-tetrahydro-10H-9a-azacyclopenta[b]triphenylene] yielded a melting point of 187 to 189 °C. This molecule yielded an IC50 in data set [1] (setting [4]) of 2480 nM. For the same molecule, the IC50 in data set [2] (setting [5]) was above 2500 nM. This molecule yielded a concentration for half-maximal inhibition (IC50) in data set [3] (setting [6]) of 2150 nM.
As for `COc1cc2c3c(c4cc(OC)c(OC)c(OC)c4c2cc1OC)CC1CCCN1C3` (stereo not drawn) [Compound 4d, 4-Methoxytylophorine], the IC50 in data set [1] (48 h treatment) was 61.2 nM; in data set [2] (48 h treatment), 54.1 nM; in data set [3] (48 h treatment), 58.8 nM.
For the molecule `COc1cc2c3c(c4cc(OC)c(OC)c(OC)c4c2cc1OC)CN1CCCC1C3` (stereo not drawn) [Compound 4e, 2,3,5,6,7-Pentamethoxy-11,12,12a,13-tetrahydro-10H-9a-azacyclopenta[b]triphenylene], the melting point fell in the range of 169 to 170 °C. This molecule also came in with an IC50 in data set [1] (setting [4]) of 224 nM. The same molecule yielded an IC50 in data set [2] (setting [5]) of 165 nM. Moreover, the IC50 in data set [3] (setting [6]) was 150 nM.
Take `COc1ccc2c3c(c4cc(OC)c(OC)cc4c2c1)C[C@H]1CCCN1C3` [Compound 4g, Antofine]: the IC50 in data set [1] (48 h treatment) stood at 42.4 nM; in data set [2] (48 h treatment), 32.5 nM; in data set [3] (48 h treatment), 30.3 nM.
Consider `COc1cc2c3c(c4c(OC)c(OC)c(OC)cc4c2cc1OC)CN1CCCC1C3` (stereo not drawn) [Compound 4h, 2,3,6,7,8-Pentamethoxy-11,12,12a,13-tetrahydro-10H-9a-azacyclopenta[b]triphenylene], for which the melting point was 231 °C (dec.). Moreover, the IC50 in data set [1] (setting [4]) was above 2500 nM. Besides, in data set [2] (setting [5]), the IC50 is above 2500 nM. The same molecule registered an IC50 in data set [3] (setting [6]) above 2500 nM.
As to `COc1cc2c3c(c4cc(OC)c(OC)cc4c2cc1OC)CN1CCC[C@@H]1C3` [Compound 4i, Tylophorine], the IC50 in data set [1] (48 h treatment) came to 41.1 nM; in data set [2] (48 h treatment) it was 30.9 nM; in data set [3] (48 h treatment), 28.3 nM.
For the molecule `COc1cc2c3c(c4c(OC)c(OC)c(OC)cc4c2cc1OC)CC1CCCCN1C3` (stereo not drawn) [Compound 5a, 1,2,3,6,7-Pentamethoxy-10,11,12,13,13a,14-hexahydro-9H-9a-azabenzo[b]triphenylene], the melting point lay within 191 to 192 °C. For the same molecule, the IC50 in data set [1] (setting [4]) turned out to be 276 nM. The molecule further registered an IC50 in data set [2] (setting [5]) of 252 nM. The molecule also returned an IC50 in data set [3] (setting [6]) of 272 nM.
For `COc1ccc2c3c(c4cc(OC)c(OC)cc4c2c1)CN1CCCCC1C3` (stereo not drawn) [Compound 5b, Boehmeriasin A], the IC50 stood at 272 nM in data set [1] (48 h treatment), 211 nM in data set [2] (48 h treatment) and 184 nM in data set [3] (48 h treatment).
`COc1ccc2c(c1)c1c(c3cc(OC)c(OC)cc32)CN2CCCCC2C1` (stereo not drawn) [Compound 5c, 2,6,7-Trimethoxy-10,11,12,13,13a,14-hexahydro-9H-9a-azabenzo[b]triphenylene] displayed a melting point of 182 to 184 °C. Further, the IC50 in data set [1] (setting [4]) was determined as 392 nM. In addition, the IC50 in data set [2] (setting [5]) is 314 nM. In data set [3] (setting [6]), this molecule returned an IC50 of 279 nM.
As to `COc1cc2c3c(c4cc(OC)c(OC)c(OC)c4c2cc1OC)CC1CCCCN1C3` (stereo not drawn) [Compound 5d, 4,7-Dimethoxycryptoplerine], the IC50 was 61.9 nM in data set [1] (48 h treatment), 54.4 nM in data set [2] (48 h treatment) and 35.7 nM in data set [3] (48 h treatment).
For `COc1ccc2c3c(c4cc(OC)c(OC)cc4c2c1)C[C@H]1CCCCN1C3` [Compound 5g, Cryptopleurine], in that order: 11.3 nM, 9 nM and 4.6 nM.
Desmethoxytylophorine [Compound 4f]: the IC50 came to 1910 nM in data set [1] (48 h treatment), 2020 nM in data set [2] (48 h treatment) and 1510 nM in data set [3] (48 h treatment).
